Tests used:
[1] = Cytotoxic assay against Vero E6 cells (MTT, 72 h); format: cell-based; details: African green monkey
Protocol: The cytotoxicity assessment of compounds was performed against Vero E6 cells. The specific experimental procedures: Vero E6 cells were seeded into a 96-well plate at a cell density of 2×10^4 cells/well, with 100 μL/well, and then incubated overnight at 37° C. in a 5% CO2 incubator. The next day, 100 μL of drug-containing medium was added to each well. The compound was diluted in a 2-fold serial dilution with a top concentration of […], for a total of 6 gradients. Three repeated wells were set for each concentration, and negative controls and blank controls without drugs were included for each experiment. […] All experimental data were analyzed using GraphPad Prism software.

in vivo = details: male, Sprague-Dawley, rat
[2] = male, Sprague-Dawley, rat, in vivo, iv, 1 mg/kg
[3] = target: recombinant SARS-CoV-2 M^pro (Severe acute respiratory syndrome coronavirus 2 (2019-nCoV) (SARS-CoV-2), UniProt P0DTD1); experiment: Inhibition of SARS-CoV-2 M^pro enzyme activity (fluorescent substrate assay); format: biochemical; details: inhibition of SARS-CoV-2 M^pro enzyme activity; values in nM; read-out: IC50
[4] = Metabolic stability using human liver microsomes; format: in vitro ADME; details: pH 7.4, NADPH, 37° C., read-out: Human liver microsomes T1/2

| Structure (SMILES) | CC50 at 72 h [1] | AUC(0-inf) (in vivo; iv, 1 mg/kg) | AUC(0-t) (in vivo; iv, 1 mg/kg) | Cmax (in vivo; iv, 1 mg/kg) | MRT inf (in vivo; iv, 1 mg/kg) | Tmax (in vivo; iv, 1 mg/kg) | clearance (in vivo; iv, 1 mg/kg) | half-life (in vivo; iv, 1 mg/kg) | AUC(0-inf) (in vivo; po, 10 mg/kg) | AUC(0-t) (in vivo; po, 10 mg/kg) | Cmax (in vivo; po, 10 mg/kg) | MRT inf (in vivo; po, 10 mg/kg) | Tmax (in vivo; po, 10 mg/kg) | bioavailability (in vivo; po, 10 mg/kg) | half-life (in vivo; po, 10 mg/kg) | Vssobs [2] | IC50 [3] | half-life at 1 µM [4] |
| --- | --- | --- | --- | --- | --- | --- | --- | --- | --- | --- | --- | --- | --- | --- | --- | --- | --- | --- |
| C[C@@H](NC(=O)[C@@H]1C[C@@H]2[C@H](C1)C2(F)F)C(=O)N[C@H](Cc1ccccc1)C(=O)C(=O)NCc1ccccn1 [Compound 126] | > 500000 nM | 1070 ± 295 ng·h/mL | 1050 ± 285 ng·h/mL | 1860 ± 138 ng/mL | 1.06 ± 0.56 h | 0.08 h | 4.63 ± 3.62 mL/min/kg | 3.65 ± 3.48 h | 5270 ± 327 ng·h/mL | 5270 ± 325 ng·h/mL | 1559 ± 11.6 ng/mL | 4.02 ± 0.17 h | 0.5 h | 49.9 ± 3.08% | 2.46 ± 0.15 h | 16.6 ± 5.41 L/kg | 11.1 ± 0.6 nM | – |
| C[C@@H](NC(=O)C1CCC(F)(F)CC1)C(=O)N[C@H](Cc1ccccc1)C(=O)C(=O)NCc1ccccn1 [Compound 145] | – | 1180 ± 208 ng·h/mL | 1160 ± 205 ng·h/mL | 1640 ± 86.6 ng/mL | 1.09 ± 0.13 h | 0.08 h | 1.73 ± 0.37 mL/min/kg | 1.37 ± 0.05 h | 3850 ± 875 ng·h/mL | 3830 ± 872 ng·h/mL | 1170 ± 223 ng/mL | 3.75 ± 0.56 h | 0.33 ± 0.14 h | 32.9 ± 7.51% | 3.19 ± 0.06 h | 14.5 ± 2.62 L/kg | 17.1 ± 2.5 nM | – |
| O=C(CC1CCC(F)(F)CC1)NCC(=O)N[C@H](Cc1ccccc1)C(=O)C(=O)NCc1ccccn1 [Compound 150] | > 500000 nM | 6630 ± 2650 ng·h/mL | 6420 ± 2820 ng·h/mL | 2010 ± 322 ng/mL | 3.94 ± 1.26 h | 0.08 h | 0.83 ± 0.21 mL/min/kg | 3.59 ± 0.8 h | 12900 ± 3230 ng·h/mL | 12600 ± 3080 ng·h/mL | 1300 ± 307 ng/mL | 5.95 ± 0.09 h | 0.42 ± 0.14 h | 19.7 ± 4.8% | 4.26 ± 0.63 h | 2.91 ± 1.48 L/kg | 12.2 ± 0.1 nM | – |
| O=C(CNC(=O)C1CCC(F)(F)CC1)N[C@H](Cc1ccccc1)C(=O)C(=O)NCc1ccccn1 [Compound 155] | 281000 nM | 5120 ± 628 ng·h/mL | 5100 ± 615 ng·h/mL | 1570 ± 7.88 ng/mL | 3.99 ± 0.42 h | 0.08 h | 0.88 ± 0.1 mL/min/kg | 3.12 ± 0.35 h | 12400 ± 2230 ng·h/mL | 12300 ± 2270 ng·h/mL | 1150 ± 289 ng/mL | 5.98 ± 0.36 h | 0.33 ± 0.14 h | – | 3.75 ± 0.62 h | 3.29 ± 0.42 L/kg | 14.1 ± 0.1 nM | – |
| O=C(NCc1ccccn1)C(=O)[C@@H](Cc1ccccc1)NC(=O)[C@H]1COCCN1C(=O)CC1CCC(F)(F)CC1 [Compound 289] | > 500000 nM | – | – | – | – | – | – | – | 3250 ± 462 ng·h/mL | 3240 ± 460 ng·h/mL | 1040 ± 349 ng/mL | 2.98 ± 0.33 h | 0.5 h | – | 3.28 ± 0.19 h | – | 10.6 ± 0.1 nM | – |
| C[C@@H](NC(=O)N1CCC(F)(F)CC1)C(=O)N[C@H](Cc1ccccc1)C(=O)C(=O)NCc1ccccn1 [Compound 296, N—((R)-1-(((R)-3,4-dioxo-1-phenyl-4-((pyridin-2-ylmethyl)amino)butan-2-yl)amino)-1-oxopropan-2-yl)-4,4-difluoropiperidin-1-formamide] | – | 1040 ± 162 ng·h/mL | 1020 ± 156 ng·h/mL | 1400 ± 22.9 ng/mL | 1.17 ± 0.44 h | 0.08 h | 4.65 ± 3.87 mL/min/kg | 3.55 ± 3.39 h | 5190 ± 1010 ng·h/mL | 5180 ± 1010 ng·h/mL | 1040 ± 209 ng/mL | 4.43 ± 0.87 h | 0.25 h | 50.6 ± 9.84% | 2.8 ± 0.09 h | 16.3 ± 2.68 L/kg | 14.8 ± 0.1 nM | – |
| CC(C)(C)[C@H](NC(=O)C(F)(F)F)C(=O)N1C[C@H]2[C@@H]([C@H]1C(=O)N[C@H](C#N)C[C@@H]1CCNC1=O)C2(C)C [PF-07321332, Nirmatrelvir, reference compound] | – | – | – | – | – | – | – | – | – | – | – | – | – | – | – | – | – | 0.353 h |

— patent US20250064789A1, “KETOAMIDE DERIVATIVES AND PHARMACEUTICAL USES THEREOF” (priority 2022, published 2025)
